# Results from patent US8324226B2, “Therapeutic oxy-phenyl-aryl compounds and their use” (Cancer Research Technology Limited, priority 2007, dated 2012).
# Like-named read-outs stand apart in the source and are kept apart here.
# Target: T1, CHK2 (Homo sapiens, UniProt O96017)
# T1 construct: made in house
# Experiment: CHK2 kinase activity assay (DELFIA, phosphorylation of a CDC25C peptide)
# Type: biochemical
# Details: ATP 30 μM, CHK2 1 nM, read-out: IC50, inhibition of CHK2 kinase activity in vitro
# T1 sequence (O96017 whole entry): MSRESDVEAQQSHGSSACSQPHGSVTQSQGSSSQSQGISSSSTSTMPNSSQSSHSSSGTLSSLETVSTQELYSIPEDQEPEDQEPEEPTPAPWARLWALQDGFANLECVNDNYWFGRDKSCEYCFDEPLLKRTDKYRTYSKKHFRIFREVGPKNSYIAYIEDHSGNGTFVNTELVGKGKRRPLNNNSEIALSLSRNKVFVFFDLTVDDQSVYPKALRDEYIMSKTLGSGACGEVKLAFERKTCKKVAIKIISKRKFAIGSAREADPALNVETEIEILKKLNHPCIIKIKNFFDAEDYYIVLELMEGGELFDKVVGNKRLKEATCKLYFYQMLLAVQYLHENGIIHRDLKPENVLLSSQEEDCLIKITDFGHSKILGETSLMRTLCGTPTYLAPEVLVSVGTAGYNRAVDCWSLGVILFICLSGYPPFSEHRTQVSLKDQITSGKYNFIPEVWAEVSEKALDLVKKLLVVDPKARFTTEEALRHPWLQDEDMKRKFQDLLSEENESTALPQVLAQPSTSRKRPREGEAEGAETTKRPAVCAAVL
IC50 (first set of tested compounds) [µM],IC50 (following further studies) [µM],SMILES
< 3,0.3 to 3,"Oc1ccccc1-c1nc(N[C@H]2CCNC2)c2cc(Br)ccc2n1 [Compound A-016, (S)-2-(6-Bromo-4-(pyrrolidin-3-ylamino)quinazolin-2-yl)phenol]"
< 3,0.3 to 3,"Oc1ccccc1-c1nc(N[C@H]2CCNC2)c2ccc(-c3ccccc3)cc2n1 [Compound A-020, (S)-2-(7-phenyl-4-(pyrrolidinyl-3-ylamino)quinazolin-2-yl)phenol]"
3 to 30,3 to 30,"CC(C)(C)c1ccc(O)c(-c2nc(N[C@H]3CCNC3)c3ccccc3n2)c1 [Compound A-022, (S)-4-tert-Butyl-2-(4-(pyrrolidin-3-ylamino)quinazolin-2-yl)phenol]"
3 to 30,3 to 30,"Oc1ccccc1-c1nc(N[C@H]2CCNC2)c2cc(-c3ccccc3)ccc2n1 [Compound A-025, (S)-2-(6-Phenyl-4-(pyrrolidinyl-3-ylamino)quinazolin-2-yl)phenol]"
< 3,≤ 0.3,"COC(=O)[C@H]1C[C@H](Nc2nc(-c3cc(Cl)ccc3O)nc3ccccc23)CN1 [Compound A-026, (2R,4S)-Methyl 4-(2-(5-chloro-2-hydroxyphenyl)quinazolin-4-ylamino)pyrrolidine-2-carboxylate]"
< 3,≤ 0.3,"Oc1ccccc1-c1nc(N[C@H]2CCNC2)c2ccc(-c3ccc(CN4CCOCC4)cc3)cc2n1 [Compound A-027, (S)-2-(7-(4-(Morpholinomethyl)phenyl)-4-(pyrrolidin-3-ylamino)quinazolin-2-yl)phenol]"
< 3,0.3 to 3,"Oc1ccccc1-c1nc(N[C@H]2CCNC2)c2cc(-c3ccc(CN4CCOCC4)cc3)ccc2n1 [Compound A-028, (S)-2-(6-(4-(Morpholinomethyl)phenyl)-4-(pyrrolidin-3-ylamino)quinazolin-2-yl)phenol]"
< 3,0.3 to 3,"Oc1ccccc1-c1nc(N[C@H]2CCNC2)c2cc(-c3cn[nH]c3)ccc2n1 [Compound A-029, (S)-2-(6-(1H-Pyrazol-4-yl)-4-(pyrrolidin-3-ylamino)quinazolin-2-yl)phenol]"
< 3,0.3 to 3,"O=C(NCc1ccccc1)[C@H]1C[C@H](Nc2nc(-c3ccccc3O)nc3ccccc23)CN1 [Compound A-031, (2R,4S)-N-Benzyl-4-(2-(2-hydroxyphenyl)quinazolin-4-ylamino)pyrrolidine-2-carboxamide]"
< 3,0.3 to 3,"CNC(=O)[C@H]1C[C@H](Nc2nc(-c3ccccc3O)nc3ccccc23)CN1 [Compound A-032, (2R,4S)-4-(2-(2-Hydroxyphenyl)quinazolin-4-ylamino)-N-methylpyrrolidine-2-carboxamide]"
< 3,≤ 0.3,"COC(=O)c1ccc(O)c(-c2nc(N[C@H]3CCNC3)c3ccccc3n2)c1 [Compound A-033, (S)-Methyl 4-hydroxy-3-(4-(pyrrolidin-3-ylamino)quinazolin-2-yl)benzoate]"
< 3,≤ 0.3,"O=C([C@H]1C[C@H](Nc2nc(-c3ccccc3O)nc3ccccc23)CN1)N1CCCC1 [Compound A-034, ((2R,4S)-4-(2-(2-Hydroxyphenyl)quinazolin-4-ylamino)pyrrolidin-2-yl)(pyrrolidin-1-yl)methanone]"
< 3,0.3 to 3,"O=C([C@H]1C[C@H](Nc2nc(-c3ccccc3O)nc3ccccc23)CN1)N1CCNCC1 [Compound A-035, ((2R,4S)-4-(2-(2-Hydroxyphenyl)quinazolin-4-ylamino)pyrrolidin-2-yl)(piperazin-1-yl)methanone]"
< 3,0.3 to 3,"CN1CCN(C(=O)[C@H]2C[C@H](Nc3nc(-c4ccccc4O)nc4ccccc34)CN2)CC1 [Compound A-036, ((2R,4S)-4-(2-(2-Hydroxyphenyl)quinazolin-4-ylamino)pyrrolidin-2-yl)(4-methylpiperazin-1-yl)methanone]"
< 3,≤ 0.3,"O=C([C@H]1C[C@H](Nc2nc(-c3ccccc3O)nc3ccccc23)CN1)N1CCCCC1 [Compound A-037, ((2R,4S)-4-(2-(2-Hydroxyphenyl)quinazolin-4-ylamino)pyrrolidin-2-yl)(piperidin-1-yl)methanone]"
< 3,≤ 0.3,"O=C([C@H]1C[C@H](Nc2nc(-c3ccccc3O)nc3ccccc23)CN1)N1CCOCC1 [Compound A-038, ((2R,4S)-4-(2-(2-Hydroxyphenyl)quinazolin-4-ylamino)pyrrolidin-2-yl)(morpholino)methanone]"
< 3,0.3 to 3,"O=C(Nc1ccccc1)[C@H]1C[C@H](Nc2nc(-c3ccccc3O)nc3ccccc23)CN1 [Compound A-039, (2R,4S)-4-(2-(2-Hydroxyphenyl)quinazolin-4-ylamino)-N-phenylpyrrolidine-2-carboxamide]"
< 3,≤ 0.3,"Oc1ccc(Br)cc1-c1nc(N[C@H]2CCNC2)c2ccccc2n1 [Compound A-041, (S)-4-Bromo-2-(4-(pyrrolidin-3-ylamino)quinazolin-2-yl)phenol]"
< 3,≤ 0.3,"CN(c1nc(-c2cc(F)ccc2O)nc2ccccc12)[C@H]1CCNC1 [Compound A-043, (S)-4-Fluoro-2-(4-(methyl(pyrrolidin-3-yl)amino)quinazolin-2-yl)phenol]"

IC50 (first set of tested compounds) [µM],IC50 (following further studies) [µM],SMILES
< 3,≤ 0.3,"CN(c1nc(-c2cc(Cl)ccc2O)nc2ccccc12)[C@H]1CCNC1 [Compound A-044, (S)-4-Chloro-2-(4-(methyl(pyrrolidin-3-yl)amino)quinazolin-2-yl)phenol]"
< 3,≤ 0.3,"CN(C)C(=O)[C@H]1C[C@H](Nc2nc(-c3cc(F)ccc3O)nc3ccccc23)CN1 [Compound A-046, (2R,4S)-4-(2-(5-Fluoro-2-hydroxyphenyl)quinazolin-4-ylamino)-N,N-dimethylpyrrolidine-2-carboxamide]"
< 3,0.3 to 3,"CN(CCO)C(=O)[C@H]1C[C@H](Nc2nc(-c3ccccc3O)nc3ccccc23)CN1 [Compound A-047, (2R,4S)-N-(2-Hydroxyethyl)-4-(2-(2-hydroxyphenyl)quinazolin-4-ylamino)-N-methylpyrrolidine-2-carboxamide]"
< 3,≤ 0.3,"CC(C)N(C)C(=O)[C@H]1C[C@H](Nc2nc(-c3ccccc3O)nc3ccccc23)CN1 [Compound A-048, (2R,4S)-4-(2-(2-Hydroxyphenyl)quinazolin-4-ylamino)-N-isopropyl-N-methylpyrrolidine-2-carboxamide]"
< 3,0.3 to 3,"O=C([C@H]1C[C@H](Nc2nc(-c3ccccc3O)nc3ccccc23)CN1)N1CCC1 [Compound A-049, Azetidin-1-yl((2R,4S)-4-(2-(2-hydroxyphenyl)quinazolin-4-ylamino)pyrrolidin-2-yl)methanone]"
< 3,≤ 0.3,"CCN(C)C(=O)[C@H]1C[C@H](Nc2nc(-c3ccccc3O)nc3ccccc23)CN1 [Compound A-050, (2R,4S)-N-Ethyl-4-(2-(2-hydroxyphenyl)quinazolin-4-ylamino)-N-methylpyrrolidine-2-carboxamide]"
< 3,0.3 to 3,"CCNC(=O)[C@H]1C[C@H](Nc2nc(-c3ccccc3O)nc3ccccc23)CN1 [Compound A-051, (2R,4S)-N-Ethyl-4-(2-(2-hydroxyphenyl)quinazolin-4-ylamino)pyrrolidine-2-carboxamide]"
< 3,≤ 0.3,"OCC#Cc1ccc2nc(-c3ccccc3O)nc(N[C@H]3CCNC3)c2c1 [Compound A-052, (S)-2-(6-(3-hydroxyprop-1-ynyl)-4-(pyrrolidin-3-ylamino)quinazolin-2-yl)phenol]"
< 3,≤ 0.3,"OCC#Cc1ccc2c(N[C@H]3CCNC3)nc(-c3ccccc3O)nc2c1 [Compound A-054, (S)-2-(7-(3-Hydroxyprop-1-ynyl)-4-(pyrrolidin-3-ylamino)quinazolin-2-yl)phenol]"
,≤ 0.3,"Oc1ccc(Cl)cc1-c1nc(NC2CCCNCC2)c2ccccc2n1 (centres unmarked) [Compound A-057, 2-(4-(Azepan-4-ylamino)quinazolin-2-yl)-4-chlorophenol]"
,≤ 0.3,"Oc1ccc(Cl)cc1-c1nc(NC2CCCCNC2)c2ccccc2n1 (centres unmarked) [Compound A-058, 2-(4-(Azepan-3-ylamino)quinazolin-2-yl)-4-chlorophenol]"
,≤ 0.3,"Oc1ccc(F)cc1-c1nc(NC2CCCCNC2)c2ccccc2n1 (centres unmarked) [Compound A-059, 2-(4-(Azepan-3-ylamino)quinazolin-2-yl)-4-fluorophenol]"
,≤ 0.3,"Oc1ccc(F)cc1-c1nc(NC2CCCNCC2)c2ccccc2n1 (centres unmarked) [Compound A-060, 2-(4-(Azepan-4-ylamino)quinazolin-2-yl)-4-fluorophenol]"
,≤ 0.3,"CN(C)C(=O)[C@H]1C[C@H](Nc2nc(-c3cc(F)ccc3O)nc3cc(CCCO)ccc23)CN1 [Compound A-061, (2R,4S)-4-(2-(5-Fluoro-2-hydroxyphenyl)-7-(3-hydroxypropyl)quinazolin-4-ylamino)-N,N-dimethylpyrrolidine-2-carboxamide]"
,≤ 0.3,"Oc1ccccc1-c1nc(N[C@H]2CCNC2)c2ccc(Cl)cc2n1 [Compound A-062, (S)-2-(7-Chloro-4-(pyrrolidin-3-ylamino)quinazolin-2-yl)phenol]"
,3 to 30,"O=C(O)C1(Nc2nc(-c3cc(Cl)ccc3O)nc3ccccc23)CCNC1 (centres unmarked) [Compound A-064, 3-(2-(5-Chloro-2-hydroxyphenyl)quinazolin-4-ylamino)pyrrolidine-3-carboxylic acid]"
,≤ 0.3,"Oc1ccccc1-c1nc(N[C@H]2CCNC2)c2ccc(-c3cn[nH]c3)cc2n1 [Compound A-065, (S)-2-(7-(1H-Pyrazol-4-yl)-4-(pyrrolidin-3-ylamino)quinazolin-2-yl)phenol]"
,≤ 0.3,"Cn1cc(-c2ccc3c(N[C@H]4CCNC4)nc(-c4ccccc4O)nc3c2)cn1 [Compound A-066, (S)-2-(7-(1-Methyl-1H-pyrazol-4-yl)-4-(pyrrolidin-3-ylamino)quinazolin-2-yl)phenol]"
